Data on 1 molecule can be found in patent US8551958B2, “Galactosylated pro-drugs of non-steroidal anti-inflammatories with improved pharmacokinetic characteristics and reduced toxicity of the starting drug” (Stewart Italia Srl, priority 2008, dated 2013).

Entries after “also recorded” stand apart in the source; their conditions may differ.

Series [1] can be described thus: Chemical stability of the pro-drug (phosphate buffer pH 7.4; HCl 0.1 N pH 1), HPLC. It is filed as physicochemical. As to conditions: in the dark. The procedure: For the stability study, the solutions of pro-drug were prepared by dissolving an aliquot of Ketogal in a phosphate buffer at pH 7.4, or else in a solution of HCl 0.1 N (pH 1), as regards chemical stability, or else in a plasma specimen, for enzymatic stability. The solutions were kept in the dark, at a temperature of 37° C., for 24 hours. After each hour an aliquot of specimen was taken. In the case of plasma, said aliquot was previously extracted with acetonitrile (1:2), “vortexed” and centrifuged at 3000 r.p.m. for 10 min. The supernatant was taken and used for analysis at HPLC with diode detector. The half-lives for chemical stability and enzymatic stability were calculated by quantizing, in time, the percentage of pro-drug that remained in solution. For the chromatographic separations, a 1090L HPLC (Hewlett-Packard, Palo Alto, USA) was used, coupled to a diode detector HP 1040A. A Phenomenex Luna C18 (250×4.6 mm, 5 μm) column was used. The wavelength used was 313 nm. The mobile phase was constituted by acetonitrile and an aqueous solution of phosphoric acid […] (pH 3) in the ratio of 68:32. The flow was 1 mL/min, with an injection volume of 20 μl. All the reagents and the solvents used were of analytical degree. The distilled and deionized water was purified by means of a Milli Q system (Millipore). The retention times of the compounds were: ketorolac: 6.7 min; Ketogal: 3.8 min. As internal standard tolmetin was used (9.3 min). The straight line of calibration for quantification of the compounds was constructed using standard solutions with concentrations of between 0.1 and 100 μg/ml. The linearity was obtained with a coefficient of regression (R^2) of approximately 0.998.
For the study of the stability, the solutions of pro-drug were prepared by dissolving an aliquot of Flugal in a phosphate buffer at pH 7.4, as regards chemical stability, or else in a plasma specimen, for enzymatic stability. The solutions were kept in the dark, at a temperature of 37° C., for 24 hours. After each hour an aliquot of specimen was taken. In the case of the plasma said amount was previously extracted with acetonitrile (1:2), “vortexed”, and centrifuged at 3000 r.p.m. for 10 min. The supernatant was taken and used for analysis at HPLC with diode detector. The half-lives for the chemical stability and enzymatic stability were calculated by quantizing, in time, the percentage of pro-drug that remained in solution. A 1090L HPLC (Hewlett-Packard, Palo Alto, USA) coupled to a diode detector HP 1040A was used for the chromatographic separations. The column used was a Supelcosil LC-18, 250×4.6 mm, particle size […]. The volume injected was […] and the flow of 1 mL/min. The mobile phase was constituted by a mixture of aqueous CH3CN/H3PO4 1 mM (pH 3) [32:68]. For the quantitative determination reading was made at 250 nm. The retention times of the various compounds involved in the analysis were: for Flugal 6 min and for flurbiprofen 11 min. All the reagents and the solvents used were of analytical degree. The distilled and deionized water was purified by means of a Milli Q system (Millipore). The straight line of calibration for the quantification of the compounds was constructed using standard solutions with concentrations of between 0.1 and 100 μg/ml. Linearity was obtained with a coefficient of regression (R^2) of approximately 0.998. From the results of said analysis (illustrated in Table 3) it emerges that the pro-drug Flugal has a good chemical stability and a good susceptibility to enzymatic hydrolysis.
Chemical stability was assessed also at pH 1.0 in a solution of HCl 0.1N as described.
For the stability study, the solutions of pro-drug were prepared by dissolving an aliquot of Okigal in a phosphate buffer at pH 7.4, or else in a solution of HCl 0.1 N (pH 1), as regards chemical stability, or else in a plasma specimen, for enzymatic stability. The solutions were kept in the dark, at a temperature of 37° C., for 24 hours. […]

Series [2] can be described thus: Pharmacokinetic studies (plasma, stomach, kidney, liver). It is filed as in vivo, Wistar rats. The procedure:
The pharmacokinetic profile of Ketogal and of ketorolac was evaluated in Wistar rats by measuring the concentration of the two compounds in the plasma, in the stomach, in the kidney, and in the liver. The rats received ketorolac (0.100 mg/kg) or Ketogal (0.163 mg/kg) by oral route and were sacrificed after 1 h, 2 h, 4 h, and 6 h from administration. The various specimens were treated with acetonitrile, and the suspension was “vortexed” and centrifuged at 3000 r.p.m. for 10 min. The organic phase was injected in the same HPLC system used for the stability assays.

The subject of series [3] is writhing induced by magnesium sulphate. In words: Writhing induced by magnesium sulphate (visceral pain). It is filed as in vivo, mouse. As to conditions: ketorolac 0.01 to 10 mg/kg, Ketogal in equimolar dose; 1 hour before magnesium sulphate 120 mg/kg. How it is done:
In order to determine whether ketorolac and Ketogal are able to inhibit visceral pain, the effects of these compounds on “writhing” induced by magnesium sulphate were tested. Magnesium sulphate induces a reversible response when injected by intraperitoneal route in the mouse. The administration of 120 mg/kg of magnesium sulphate induces an average of 6±0.9 episodes of “writhing” in the mouse (n=6).
Background: An intraperitoneal irritant provokes the stretching counted in writhing tests.

Series [4] relates to TNF-alpha. In words: Western blot in liver lysates, TNF-alpha. As to conditions: ketogal 16.3 mg/Kg oral for 3, 5 and 7 days. It is filed as in vivo, mice. The procedure:
(§1) Animals were sacrificed and then liver, stomach and kidney were collected in glass tubes and analysed histologically and biochemically.
(§2) Liver samples were fixed in 10% buffered formalin and embedded in paraffin, sliced, and stained with hematoxylin & eosin (H&E) for assessment of liver pathology. […] To confirm histological data, western blot analysis for TNF-alpha, IL-6 and malonyldialdehyde assay were then performed in liver lysates.

Series [5] concerns IL-6. In words: Western blot in liver lysates, IL-6. It is filed as in vivo, mice. The note with it: ketogal 16.3 mg/Kg oral for 3, 5 and 7 days. How it is done:
as §1, §2

Series [6] relates to COX-1. In words: Western blot, stomach, COX-1 protein expression. Type of series: in vivo, mice. The note with it: ketorolac 10 mg/Kg, ketogal 16.3 mg/Kg, oral, 3, 5 and 7 days; versus control stomachs.
Source text: as §1
On the technique in general: Immunoblotting shows a protein as a band on a membrane.

The test system of series [7] is PGE synthase. In words: Western blot, stomach, PGE synthase protein expression. It is filed as in vivo, mice. As to conditions: ketorolac 10 mg/Kg, ketogal 16.3 mg/Kg, oral, 3, 5 and 7 days.
Source text: as §1

In series [8] the test system is PPAR-gamma. Kind of series: Western blot, stomach, PPAR-gamma protein expression. It is filed as in vivo, mice. As to conditions: ketorolac 10 mg/Kg, ketogal 16.3 mg/Kg, oral, 3, 5 and 7 days.
Source text: as §1

In the case of `O=C(c1ccccc1)c1ccc2n1CC[C@@H]2C(=O)OCC1O[C@H](O)C(O)C(O)[C@H]1O` (mixture of isomers) [Ketogal, ketorolac-D-galactos-6′-yl ester], the “pH 7.4 T½” value in series [1] (phosphate buffer at pH 7.4, 37° C.) is reported as greater than 4 hours. Further, the “pH 1 T½” value in series [1] (solution of HCl 0.1 N (pH 1), 37° C.) amounted to 2.1 hours. The Oral availability entry in series [2] (compared with ketorolac) was “better oral availability than ketorolac; also recorded: increased the oral availability of ketorolac”. In series [2] (oral, Ketogal 0.163 mg/kg), the “Behaviour of the pro-drug in the stomach” value is “hydrolyses progressively, releasing ketorolac”; the “Presence of the pro-drug in plasma” value is “the pro-drug was not present”; the “Presence of the pro-drug in the kidney” value was “no traces of the pro-drug”; the “Presence of the pro-drug in the liver” value is “Ketogal reappeared”. The “Concentration of ketorolac in the liver after Ketogal versus drug alone” value in series [2] (oral, Ketogal 0.163 mg/kg versus ketorolac 0.100 mg/kg) is “always higher following upon administration of Ketogal”. In addition, the “Plasma levels of ketorolac after administration of Ketogal versus ketorolac as such” value in series [2] (oral, Ketogal 0.163 mg/kg, ketorolac 0.100 mg/kg, 1 h, 2 h, 4 h, 6 h) is reported as “higher than the ones observed following upon administration of the drug as such”. Also, in series [3], the “Inhibition of writhing induced by magnesium sulphate” value was “able to inhibit this response in a dose-dependent way”. For the same molecule, the “TNF-alpha level in liver” value in series [4] is listed as “no different compared to control mice”. In addition, the “IL-6 level in liver” value in series [5] is given as “no different compared to control mice”. Also, the “Gastric COX-1 protein expression” value in series [6] is “not inhibited”. Besides, the “Gastric PGE synthase protein expression” value in series [7] is given as “not inhibited”. The “Gastric PPAR-gamma protein expression” value in series [8] is recorded as “not inhibited”.
